In patent US20240262822A1, “WDR5 INHIBITORS AND MODULATORS” (Vanderbilt University, priority 2021, published 2024):
pKi: −log10 of the molar value.

What was measured:
WDR5 = target: T1, WDR5 (Homo sapiens, UniProt P61964); assay: Time Resolved-Fluorescence Energy Transfer (TR-FRET) competition assay, displacement of 10mer-Thr-FAM probe from His-tagged WDR5; type: binding; details: WDR5-His tag 2 nM, 10mer-Thr-FAM 150 nM, 60 minutes at room temperature; read-out: Ki for Exemplified Compounds for Inhibition of WDR5 by TR-FRET assay
T1 construct: WDR5-His Tag (A23, residues 24-334) is expressed and purified in our lab; made in house
Text: Excess 10mer-Thr-FAM probe was utilized with His-tagged WDR5 in conjunction with a commercial anti-His antibody containing a Terbium label. The LanthaScreen™ Elite Tb-anti-HIS Antibody from ThermoFisher Scientific was used for this purpose. This Tb-anti-HIS has an excitation/emission of 340 nm and 490 nm, respectively. The 10mer-Thr-FAM probe when bound to WDR5 will undergo a FRET interaction with the Tb-anti-HIS and emit at 520 nm. […] WDR5-His Tag (A23, residues 24-334) is expressed and purified in our lab in sufficient quantities for screening. 10mer-Thr-FAM peptide is used at 150 nM. WDR5-His tag protein is used at 2 nM. A source plate is prepared using an Echo Liquid Handler, which distributes the compounds to the assay plate (white, flat-bottom; OptiPlate) in a 10-point, 5-fold dilution schemes with a top concentration of 5 μM, in a final volume of 20 μL. A final target (WDR5)/Tb-Ab concentration of 2 nM/1 nM is dispensed from appropriate stock solutions, respectively. The final DMSO concentration in each well of the assay plate is 1% or lower. The plate is covered, shielded from light, and incubated for 60 minutes at room temperature with rocking. 10mer-Thr-FAM and Anti-His terbium antibody fluorescence is then measured on a Biotek Cytation 3 at excitation wavelength of 340 nm, and emission wavelengths of 495 nm and 520 nm. Working buffer conditions contain 1× Phosphate Buffered Saline, 300 mM NaCl, 0.5 mM TCEP, 0.1% CHAPS, at pH 7.2. TR-FRET signal is plotted and IC50 and Ki values are calculated according to the formula of Wang Z. FEBS Lett (1996) 3, 245.
where […] is the concentration of the free inhibitor at 50% inhibition, [L]50 is the concentration of the free labeled ligand at 50% inhibition, [P]0 is the concentration of the free protein at 0% inhibition, Kd represents the dissociation constant of the FITC-MLL or 10mer-Thr-FAM probe for WDR5. Total fluorescence is also measured, to rule out compounds that are inherently fluorescent or able to act as quenchers in the assay. TR-FRET binding assay

[1] = test system: MV4:11 human cancer cell lines; assay: Cellular viability / anti-proliferative activity, CellTiter-Glo, 5 day protocol; type: cell-based; details: Homo sapiens, MV4-11, 120 h, MV4:11 cells, 5 day incubation, read-out: GI50 for representative compounds on cellular proliferation of MV4:11 human cancer cell lines
Experimental: Anti-proliferative activity using MLL-harboring cell lines. MV-4-11 and K562 cells are grown in IMDM media supplemented with 10% FBS and 1% penicillin/streptomycin, Molm-13 cells are cultured in RPMI-1640 media supplemented with 10% FBS and 1% penicillin/streptomycin. Viability assays are performed by dispensing 200 cells at 7200 cells/mL into each well of an opaque 384-well plate and adding compounds at the indicated concentrations in a final volume of 32 μL and a final concentration of DMSO of 0.3% for all samples. A certain range of compound concentrations is made through a series of 2-fold dilutions starting 30 μM at the highest, total 22 dilutions. After a set incubation period, 5 day protocol, the viability of cells in each well is assessed using the CellTiter-Glo assay (Promega), read on a 96 Microplane Luminometer (Cytation 3, BioTek). Serial dilutions of each cell type are performed in all assays to generate standard curves and the final densities of cells are determined within the dynamic range of the instrument. GI50 values are calculated based on XLfit software (IDBS, Guildford, UK) with Sigmoidal Dose-Response Model. Each compound is tested in minimum of two replicates. Data are expressed as mean.

COc1cc2nc(C)nc(N3CCc4c(cc(Cn5ccnc5)cc4-c4cn(C)nc4C(F)(F)F)C3=O)c2cc1OC [Example 15, 7-((1H-Imidazol-1-yl)methyl)-2-(6,7-dimethoxy-2-methylquinazolin-4-yl)-5-(1-methyl-3-(trifluoromethyl)-1H-pyrazol-4-yl)-3,4-dihydroisoquinolin-1(2H)-one] gave a pKi (WDR5) of over 10.70 and a GI50 [1] of under 20 nM.
COc1cc2nccc(N3CCc4c(cc(Cn5ccnc5)cc4-c4cn(C)nc4C(F)(F)F)C3=O)c2cc1OC [Example 16, 7-((1H-Imidazol-1-yl)methyl)-2-(6,7-dimethoxyquinolin-4-yl)-5-(1-methyl-3-(trifluoromethyl)-1H-pyrazol-4-yl)-3,4-dihydroisoquinolin-1(2H)-one] was tested, and the pKi (WDR5) was over 10.70 and the GI50 [1] was under 20 nM.
With COc1ccc2nccc(N3CCc4c(cc(Cn5ccnc5)cc4-c4cn(C)nc4C(F)(F)F)C3=O)c2n1 [Example 17, 7-((1H-Imidazol-1-yl)methyl)-2-(6-methoxy-1,5-naphthyridin-4-yl)-5-(1-methyl-3-(trifluoromethyl)-1H-pyrazol-4-yl)-3,4-dihydroisoquinolin-1(2H)-one] the pKi (WDR5) was 10.52 and the GI50 [1] was 362 nM.
CCc1cc2c(N3CCc4c(cc(Cn5ccnc5)cc4-c4cn(C)nc4C(F)(F)F)C3=O)ccnc2c(C(=O)NC)n1 [Example 20, 4-(7-((1H-Imidazol-1-yl)methyl)-5-(1-methyl-3-(trifluoromethyl)-1H-pyrazol-4-yl)-1-oxo-3,4-dihydroisoquinolin-2(1H)-yl)-6-ethyl-N-methyl-1,7-naphthyridine-8-carboxamide] was tested, and the pKi (WDR5) was over 10.70 and the GI50 [1] was 290 nM.
CCc1cnc2c(c1)C(N1CCc3c(cc(Cn4ccnc4)cc3-c3cn(C)nc3C(F)(F)F)C1=O)COC2 (stereo not drawn) [Example 21, 7-((1H-Imidazol-1-yl)methyl)-2-(3-ethyl-5,8-dihydro-6H-pyrano[3,4-b]pyridin-5-yl)-5-(1-methyl-3-(trifluoromethyl)-1H-pyrazol-4-yl)-3,4-dihydroisoquinolin-1(2H)-one] gave a pKi (WDR5) of over 10.70 and a GI50 [1] of under 20 nM.
COc1cc2c(nc1C)CCCC2N1CCc2c(cc(Cn3ccnc3)cc2-c2cn(C)nc2C(F)(F)F)C1=O (stereo not drawn) [Example 22, 7-((1H-Imidazol-1-yl)methyl)-2-(3-methoxy-2-methyl-5,6,7,8-tetrahydroquinolin-5-yl)-5-(1-methyl-3-(trifluoromethyl)-1H-pyrazol-4-yl)-3,4-dihydroisoquinolin-1(2H)-one] gave a pKi (WDR5) of over 10.70 and a GI50 [1] of under 20 nM.
For COc1cc2c(N3CCc4c(cc(Cn5ccnc5)cc4-c4cn(C)nc4C(F)(F)F)C3=O)ncnc2cc1O [Example 23, 7-((1H-Imidazol-1-yl)methyl)-2-(7-hydroxy-6-methoxyquinazolin-4-yl)-5-(1-methyl-3-(trifluoromethyl)-1H-pyrazol-4-yl)-3,4-dihydroisoquinolin-1(2H)-one], the pKi (WDR5) was 10.60 and the GI50 [1] was 1280 nM.
COc1cc2ncnc(N3CCc4c(cc(Cn5ccnc5)cc4-c4cn(C)nc4C(F)(F)F)C3=O)c2cc1OC [Example 24, 7-((1H-Imidazol-1-yl)methyl)-2-(6,7-dimethoxyquinazolin-4-yl)-5-(1-methyl-3-(trifluoromethyl)-1H-pyrazol-4-yl)-3,4-dihydroisoquinolin-1(2H)-one] was tested, and the pKi (WDR5) was over 10.70 and the GI50 [1] was 25 nM.
COCCOc1cc2ncnc(N3CCc4c(cc(Cn5ccnc5)cc4-c4cn(C)nc4C(F)(F)F)C3=O)c2cc1OC [Example 25, 7-((1H-Imidazol-1-yl)methyl)-2-(6-methoxy-7-(2-methoxyethoxy)quinazolin-4-yl)-5-(1-methyl-3-(trifluoromethyl)-1H-pyrazol-4-yl)-3,4-dihydroisoquinolin-1(2H)-one] showed a pKi (WDR5) of 10.44 and a GI50 [1] of 310 nM.
COc1cc2c(N3CCc4c(cc(Cn5ccnc5)cc4-c4cn(C)nc4C(F)(F)F)C3=O)ncnc2cc1OCc1ccnn1C [Example 26, 7-((1H-Imidazol-1-yl)methyl)-2-(6-methoxy-7-((1-methyl-1H-pyrazol-5-yl)methoxy)quinazolin-4-yl)-5-(1-methyl-3-(trifluoromethyl)-1H-pyrazol-4-yl)-3,4-dihydroisoquinolin-1(2H)-one] showed a pKi (WDR5) of over 10.70 and a GI50 [1] of 76 nM.
Work on CCc1cc(OC)c2ncnc(N3CCc4c(cc(Cn5ccnc5)cc4-c4cn(C)nc4C(F)(F)F)C3=O)c2c1 [Example 27, 7-((1H-imidazol-1-yl)methyl)-2-(6-ethyl-8-methoxyquinazolin-4-yl)-5-(1-methyl-3-(trifluoromethyl)-1H-pyrazol-4-yl)-3,4-dihydroisoquinolin-1(2H)-one] yielded a pKi (WDR5) of over 10.70 and a GI50 [1] of under 20 nM.
Compound CCOc1cc2c(N3CCc4c(cc(Cn5ccnc5)cc4-c4cn(C)nc4C(F)(F)F)C3=O)ncnc2cc1OC [Example 28, 7-((1H-Imidazol-1-yl)methyl)-2-(6-ethoxy-7-methoxyquinazolin-4-yl)-5-(1-methyl-3-(trifluoromethyl)-1H-pyrazol-4-yl)-3,4-dihydroisoquinolin-1(2H)-one] has a pKi (WDR5) of over 10.70 and a GI50 [1] of 64 nM.
For CCOc1cc2ncnc(N3CCc4c(cc(Cn5ccnc5)cc4-c4cn(C)nc4C(F)(F)F)C3=O)c2cc1OC [Example 29, 7-((1H-Imidazol-1-yl)methyl)-2-(7-ethoxy-6-methoxyquinazolin-4-yl)-5-(1-methyl-3-(trifluoromethyl)-1H-pyrazol-4-yl)-3,4-dihydroisoquinolin-1(2H)-one], the pKi (WDR5) was 10.49 and the GI50 [1] was 164 nM.
In the case of CCOc1cc2ncnc(N3CCc4c(cc(Cn5ccnc5)cc4-c4cn(C)nc4C(F)(F)F)C3=O)c2cc1OCC [Example 30, 7-((1H-Imidazol-1-yl)methyl)-2-(6,7-diethoxyquinazolin-4-yl)-5-(1-methyl-3-(trifluoromethyl)-1H-pyrazol-4-yl)-3,4-dihydroisoquinolin-1(2H)-one], the pKi (WDR5) was over 10.70 and the GI50 [1] was 47 nM.
COc1cc2cnnc(N3CCc4c(cc(Cn5ccnc5)cc4-c4cn(C)nc4C(F)(F)F)C3=O)c2cc1OC [Example 31, 7-((1H-Imidazol-1-yl)methyl)-2-(6,7-dimethoxyphthalazin-1-yl)-5-(1-methyl-3-(trifluoromethyl)-1H-pyrazol-4-yl)-3,4-dihydroisoquinolin-1(2H)-one] was tested, and the pKi (WDR5) was over 10.70 and the GI50 [1] was under 20 nM.
In the case of COc1cc2c(N3CCc4c(cc(Cn5ccnc5)cc4-c4cn(C)nc4C(F)(F)F)C3=O)ncnc2cc1F [Example 32, 7-((1H-Imidazol-1-yl)methyl)-2-(7-fluoro-6-methoxyquinazolin-4-yl)-5-(l-methyl-3-(trifluoromethyl)-1H-pyrazol-4-yl)-3,4-dihydroisoquinolin-1(2H)-one], the pKi (WDR5) was over 10.70 and the GI50 [1] was under 20 nM.
Work on CCc1cc2c(N3CCc4c(cc(Cn5ccnc5)cc4-c4cn(C)nc4C(F)(F)F)C3=O)ccnc2c(OCCOC)n1 [Example 33, 7-((1H-Imidazol-1-yl)methyl)-2-(6-ethyl-8-(2-methoxyethoxy)-1,7-naphthyridin-4-yl)-5-(1-methyl-3-(trifluoromethyl)-1H-pyrazol-4-yl)-3,4-dihydroisoquinolin-1(2H)-one] yielded a pKi (WDR5) of over 10.70 and a GI50 [1] of under 20 nM.
With CCc1cc2c(N3CCc4c(cc(Cn5ccnc5)cc4-c4cn(C)nc4C(F)(F)F)C3=O)ccnc2c(N2CCCC2)n1 [Example 34, 7-((1H-Imidazol-1-yl)methyl)-2-(6-ethyl-8-(pyrrolidin-1-yl)-1,7-naphthyridin-4-yl)-5-(1-methyl-3-(trifluoromethyl)-1H-pyrazol-4-yl)-3,4-dihydroisoquinolin-1(2H)-one] the pKi (WDR5) was over 10.70 and the GI50 [1] was 75 nM.
